Results from ChEMBL document CHEMBL4699563, “Synthesis and evaluation of etoposide and podophyllotoxin analogs against topoisomerase IIα and HCT-116 cells” (2020).
Calls of active or inactive are those of the source. The calls are words filed in the database; no cut-off is given here.

Key:
HCT-116 [1] = assay: Cytotoxicity against human HCT-116 cells assessed as reduction in cell viability after 72 hrs by Alamar blue assay; format: functional; settings: read-out: LD50 (the source's name)
A549 [2] = assay: Antiproliferative activity against human A549 cells assessed as inhibition of cell proliferation after 48 hrs by MTT assay; format: functional; settings: read-out: LD50 (the source's name)
[3] = molecular target: DNA topoisomerase 2-alpha (Homo sapiens) (UniProt P11388); assay: Inhibition of wild type human topoisomerase-2alpha expressed in Saccharomyces cerevisiae JEL1deltatop1 assessed as inhibition of supercoiled DNA relaxation at 100 to 200 uM using negatively supercoiled pBRDNA as substrate incubated for 15 mins in presence of ATP by gel electrophoresis; settings: dose microM 100-200, time 15.0 min
Chain of DNA topoisomerase 2-alpha (Homo sapiens) (P11388 whole entry): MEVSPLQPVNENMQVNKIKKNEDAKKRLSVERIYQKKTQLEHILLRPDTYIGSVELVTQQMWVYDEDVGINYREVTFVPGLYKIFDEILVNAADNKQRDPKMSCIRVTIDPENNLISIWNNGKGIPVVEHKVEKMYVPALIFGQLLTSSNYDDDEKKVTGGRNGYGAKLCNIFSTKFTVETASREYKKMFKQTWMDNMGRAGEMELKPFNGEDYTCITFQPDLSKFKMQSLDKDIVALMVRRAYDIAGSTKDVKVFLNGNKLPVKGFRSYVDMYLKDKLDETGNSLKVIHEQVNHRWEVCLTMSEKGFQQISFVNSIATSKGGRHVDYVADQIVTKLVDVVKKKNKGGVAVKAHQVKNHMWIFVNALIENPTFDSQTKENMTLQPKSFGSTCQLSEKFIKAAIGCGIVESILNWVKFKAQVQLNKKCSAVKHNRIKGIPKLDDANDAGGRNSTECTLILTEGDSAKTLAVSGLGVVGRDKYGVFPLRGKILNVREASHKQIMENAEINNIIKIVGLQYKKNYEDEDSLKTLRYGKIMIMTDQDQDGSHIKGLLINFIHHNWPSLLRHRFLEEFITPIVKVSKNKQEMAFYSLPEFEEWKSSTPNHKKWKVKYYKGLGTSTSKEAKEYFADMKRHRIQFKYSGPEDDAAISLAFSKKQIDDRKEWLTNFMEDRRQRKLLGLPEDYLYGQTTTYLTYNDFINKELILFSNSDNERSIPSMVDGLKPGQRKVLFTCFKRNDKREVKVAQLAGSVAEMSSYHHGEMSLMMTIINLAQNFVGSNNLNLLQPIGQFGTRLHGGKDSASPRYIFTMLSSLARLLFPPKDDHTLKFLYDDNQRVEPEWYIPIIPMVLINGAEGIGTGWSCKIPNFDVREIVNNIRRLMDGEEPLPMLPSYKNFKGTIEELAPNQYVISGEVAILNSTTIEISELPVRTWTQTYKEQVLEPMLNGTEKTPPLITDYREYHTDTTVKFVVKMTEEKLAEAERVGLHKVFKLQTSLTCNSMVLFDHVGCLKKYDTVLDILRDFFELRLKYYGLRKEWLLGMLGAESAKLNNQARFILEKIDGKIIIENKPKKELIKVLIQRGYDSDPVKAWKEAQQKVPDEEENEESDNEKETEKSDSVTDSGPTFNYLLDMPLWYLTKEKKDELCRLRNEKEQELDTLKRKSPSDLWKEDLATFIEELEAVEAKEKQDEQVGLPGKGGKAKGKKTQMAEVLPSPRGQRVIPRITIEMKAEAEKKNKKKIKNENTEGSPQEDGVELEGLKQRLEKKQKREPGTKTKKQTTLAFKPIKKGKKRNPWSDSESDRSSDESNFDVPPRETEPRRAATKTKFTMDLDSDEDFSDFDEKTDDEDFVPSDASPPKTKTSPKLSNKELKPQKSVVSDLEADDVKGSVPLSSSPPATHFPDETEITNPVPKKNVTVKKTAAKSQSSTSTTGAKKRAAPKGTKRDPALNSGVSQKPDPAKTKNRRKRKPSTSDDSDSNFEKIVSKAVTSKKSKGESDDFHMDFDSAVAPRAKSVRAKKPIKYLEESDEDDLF

[4] = molecular target: DNA topoisomerase 2-alpha (Homo sapiens) (UniProt P11388); assay: Inhibition of wild type human topoisomerase-2alpha expressed in Saccharomyces cerevisiae JEL1deltatop1 assessed as induction of supercoiled DNA cleavage at 100 to 200 uM using negatively supercoiled pBRDNA as substrate incubated for 30 mins by gel electrophoresis; settings: dose microM 100-200, time 30.0 min
HCT-116 [5] = assay: Cell cycle arrest in human HCT-116 cells assessed as decrease in cell population at S phase after 48 hrs by propidium iodide staining based flow cytometry analysis; format: functional
HCT-116 [6] = assay: Cell cycle arrest in human HCT-116 cells assessed as accumulation at sub-G1 phase after 48 hrs by propidium iodide staining based flow cytometry analysis; format: functional
[7] = molecular target: DNA topoisomerase 2-alpha (Homo sapiens) (UniProt P11388); assay: Inhibition of wild type human topoisomerase-2alpha expressed in Saccharomyces cerevisiae JEL1deltatop1 assessed as induction of supercoiled DNA cleavage using negatively supercoiled pBRDNA as substrate incubated for 30 mins by gel electrophoresis; settings: dose microM 100-200, time 30.0 min
A549 [8] = assay: Cytotoxicity against human A549 cells assessed as reduction in cell viability after 72 hrs by Alamar blue assay; format: functional; settings: read-out: LD50 (the source's name)
[9] = molecular target: DNA topoisomerase 2-alpha (Homo sapiens) (UniProt P11388); assay: Inhibition of wild type human topoisomerase-2alpha expressed in Saccharomyces cerevisiae JEL1deltatop1 assessed as induction of supercoiled DNA cleavage at 200 uM using negatively supercoiled pBRDNA as substrate incubated for 30 mins by gel electrophoresis

SMILES: COc1cc([C@@H]2c3cc4c(cc3[C@@H](O[C@@H]3O[C@@H]5CO[C@@H](C)O[C@H]5[C@H](O)[C@H]3O)[C@H]3COC(=O)[C@H]23)OCO4)cc(OC)c1O [ETOPOSIDE]
- CC50 (HCT-116 [1]): 1.6 µM
- CC50 (A549 [2]): 11.8 µM

SMILES: COc1cc([C@@H]2c3cc4c(cc3[C@H](O)[C@H]3COC(=O)[C@H]23)OCO4)c(Br)c(OC)c1OC
- inhibition [3]: inactive

SMILES: COc1cc([C@@H]2c3cc4c(cc3[C@H](O)[C@H]3COC(=O)[C@H]23)OCO4)cc(OC)c1OC
- inhibition [3]: inactive

SMILES: COc1cc([C@@H]2c3cc4c(cc3[C@@H](O[C@@H]3O[C@@H]5CO[C@@H](C)O[C@H]5[C@H](O)[C@H]3O)[C@H]3COC(=O)[C@H]23)OCO4)c(Cl)c(OC)c1O
- CC50 (HCT-116 [1]): 120 µM
- inhibition [3]: Active
- Activity [4]: Active
- Activity (HCT-116 [5]): Active
- Activity (HCT-116 [6]): Active
- Activity [7]: Active

SMILES: COc1cc([C@@H]2c3cc4c(cc3[C@@H](O)[C@H]3COC(=O)[C@H]23)OCO4)c(Cl)c(OC)c1O
- CC50 (A549 [8]): 35 µM
- CC50 (HCT-116 [1]): 33 µM
- inhibition [3]: Active
- Activity [9]: Active

SMILES: COc1c(Cl)c([C@@H]2c3cc4c(cc3[C@H](O)[C@H]3COC(=O)[C@H]23)OCO4)c(Cl)c(OC)c1OC
- CC50 (A549 [8]): 17 µM
- CC50 (HCT-116 [1]): 20 µM
- inhibition [3]: Active
- Activity [4]: Active
- Activity (HCT-116 [5]): Active
- Activity (HCT-116 [6]): Active

SMILES: COc1cc([C@@H]2c3cc4c(cc3[C@H](O)[C@H]3COC(=O)[C@H]23)OCO4)c(Cl)c(OC)c1OC
- inhibition [3]: inactive
